The molecules below were run against human SSTR2 (Homo sapiens (Human), UniProt P30874) (assay: Human SSTR2 intracellular cAMP functional assay for agonists (HTRF)). Conditions: not given.
Format: cell-based
Method in brief: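 Cells bearing human SSTR2 exposed to compound for 20 minutes at 37 °C; after lysis, cAMP measured by time-resolved fluorescence (HTRF) and converted via a standard curve. EC50 calculated from cAMP versus compound concentration.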

Chain of human SSTR2 (P30874 whole entry): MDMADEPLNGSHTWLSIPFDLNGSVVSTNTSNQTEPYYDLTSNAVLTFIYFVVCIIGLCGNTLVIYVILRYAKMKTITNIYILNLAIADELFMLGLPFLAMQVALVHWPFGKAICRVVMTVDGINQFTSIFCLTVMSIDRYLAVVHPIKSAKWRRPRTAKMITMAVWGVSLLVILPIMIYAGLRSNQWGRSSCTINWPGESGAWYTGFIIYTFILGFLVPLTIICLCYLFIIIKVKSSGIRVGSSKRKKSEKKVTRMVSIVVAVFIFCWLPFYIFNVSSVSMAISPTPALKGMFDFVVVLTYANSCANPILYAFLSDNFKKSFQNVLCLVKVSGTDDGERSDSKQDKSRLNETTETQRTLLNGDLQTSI

Structure (SMILES)	EC50
CON=Cc1c(F)cccc1-c1ccc2ncc(-c3cc(F)cc(F)c3)c(N3CCC(N)CC3)c2c1 [2-129, 1-[3-(3,5-difluorophenyl)-6-{3-fluoro-2-[(methoxyimino)methyl]phenyl}quinolin-4-yl]piperidin-4-amine]	10 to 100 nM
NC1CCN(c2c(-c3cc(F)cc(F)c3)cnc3ccc(-c4cccc(C(N)C(F)(F)F)c4)cc23)CC1 (stereo not shown) [2-132, 1-{6-[3-(1-amino-2,2,2-trifluoroethyl)phenyl]-3-(3,5-difluorophenyl)quinolin-4-yl}piperidin-4-amine]	10 to 100 nM
NC1CCN(c2c(-c3cc(F)cc(F)c3)cnc3ccc(-c4cc(Cl)c5[nH]c(=O)[nH]c5c4)cc23)CC1 [2-141, 6-[4-(4-aminopiperidin-1-yl)-3-(3,5-difluorophenyl)quinolin-6-yl]-4-chloro-2,3-dihydro-1H-1,3-benzodiazol-2-one]	10 to 100 nM
N#Cc1cc(Cl)c(F)c(-c2ccc3ncc(-c4cc(F)cc(F)c4)c(N4CCC(N)CC4)c3c2)c1O [2-147, 3-[4-(4-aminopiperidin-1-yl)-3-(3,5-difluorophenyl)quinolin-6-yl]-5-chloro-4-fluoro-2-hydroxybenzonitrile]	10 to 100 nM
COc1cc(F)cc(-c2cnc3ccc(-c4cccc(F)c4NC(=O)N4CCC4)cc3c2N2CCC(N)CC2)c1 [2-175, N-{2-[4-(4-aminopiperidin-1-yl)-3-(3-fluoro-5-methoxyphenyl)quinolin-6-yl]-6-fluorophenyl}azetidine-1-carboxamide]	10 to 100 nM

Same assay, conditions: CHO-K1 cells stably expressing human SSTR2; NKH477-stimulated cAMP; read-out: EC50 (inhibition of cAMP activities via human SST2R)

Structure (SMILES)	EC50
CON=Cc1cc(F)cc(-c2ccc3ncc(-c4cc(C)cc(F)c4)c(N4CCC(N)CC4)c3c2)c1O [2-116, 2-[4-(4-aminopiperidin-1-yl)-3-(3-fluoro-5-methylphenyl)quinolin-6-yl]-4-fluoro-6-[(methoxyimino)methyl]phenol]	< 10 nM
COC(=O)Nc1c(F)cc(F)c(F)c1-c1ccc2ncc(-c3cc(F)cc(F)c3)c(N3CCC(N)CC3)c2c1 [2-123, methyl N-{2-[4-(4-aminopiperidin-1-yl)-3-(3,5-difluorophenyl)quinolin-6-yl]-3,4,6-trifluorophenyl}carbamate]	< 10 nM
COC(=O)Nc1c(C#N)cncc1-c1ccc2ncc(-c3cc(F)cc(F)c3)c(N3CCC(N)CC3)c2c1 [2-125, methyl N-{3-[4-(4-aminopiperidin-1-yl)-3-(3,5-difluorophenyl)quinolin-6-yl]-5-cyanopyridin-4-yl}carbamate]	< 10 nM
NC1CCN(c2c(-c3cc(F)cc(F)c3)cnc3ccc(-c4cccc(F)c4C=NO)cc23)CC1 [2-126, 1-[3-(3,5-difluorophenyl)-6-{3-fluoro-2-[(hydroxyimino)methyl]phenyl}quinolin-4-yl]piperidin-4-amine]	< 10 nM
NC1CCN(c2c(-c3cc(F)cc(F)c3)cnc3ccc(-c4c(O)c(Cl)cc(F)c4F)cc23)CC1 [2-134, 2-[4-(4-aminopiperidin-1-yl)-3-(3,5-difluorophenyl)quinolin-6-yl]-6-chloro-3,4-difluorophenol]	< 10 nM
CONC(=O)Nc1c(F)cc(F)cc1-c1ccc2ncc(-c3cc(F)cc(F)c3)c(N3CCC(N)CC3)c2c1 [2-139, 1-{2-[4-(4-aminopiperidin-1-yl)-3-(3,5-difluorophenyl)quinolin-6-yl]-4,6-difluorophenyl}-3-methoxyurea]	< 10 nM
NC1CCN(c2c(-c3cc(F)cc(F)c3)cnc3ccc(-c4ccc5oc(=O)[nH]c5c4)cc23)CC1 [2-142, 5-[4-(4-aminopiperidin-1-yl)-3-(3,5-difluorophenyl)quinolin-6-yl]-2,3-dihydro-1,3-benzoxazol-2-one]	< 10 nM
N#Cc1cccc(-c2ccc3ncc(-c4cc(F)cc(F)c4)c(N4CC[C@@H](N)[C@H](C(=O)O)C4)c3c2)c1O [2-145]	100 to 1000 nM
COC(=O)Nc1c(C#N)cccc1-c1ccc2ncc(-c3cc(F)cc(F)c3)c(N3CCC(N)CC3)c2c1 [2-148, methyl N-{2-[4-(4-aminopiperidin-1-yl)-3-(3,5-difluorophenyl)quinolin-6-yl]-6-cyanophenyl}carbamate]	< 10 nM
NC1CCN(c2c(-c3cc(F)cc(F)c3)cnc3ccc(-c4c(O)c(F)cc(F)c4F)cc23)CC1 [2-150, 2-[4-(4-aminopiperidin-1-yl)-3-(3,5-difluorophenyl)quinolin-6-yl]-3,4,6-trifluorophenol]	< 10 nM
NC1CCN(c2c(-c3cc(F)cc(F)c3)cnc3ccc(-c4cncc(F)c4C=NO)cc23)CC1 [2-152, 1-[3-(3,5-difluorophenyl)-6-{5-fluoro-4-[(hydroxyimino)methyl]pyridin-3-yl}quinolin-4-yl]piperidin-4-amine]	< 10 nM
CONC(=O)Nc1c(F)cc(F)cc1-c1ccc2ncc(-c3cc(F)cc(OC)c3)c(N3CCC(N)CC3)c2c1 [2-164, 1-{2-[4-(4-aminopiperidin-1-yl)-3-(3-fluoro-5-methoxyphenyl)quinolin-6-yl]-4,6-difluorophenyl}-3-methoxyurea]	< 10 nM
COC(=O)Nc1c(F)cc(F)cc1-c1ccc2ncc(-c3cc(F)cc(OC)c3)c(N3CCC(N)CC3)c2c1 [2-165, methyl N-{2-[4-(4-aminopiperidin-1-yl)-3-(3-fluoro-5-methoxyphenyl)quinolin-6-yl]-4,6-difluorophenyl}carbamate]	< 10 nM
COc1cc(F)cc(-c2cnc3ccc(-c4cccc(F)c4C=NO)cc3c2N2CCC(N)CC2)c1 [2-166, 1-(6-{3-fluoro-2-[(hydroxyimino)methyl]phenyl}-3-(3-fluoro-5-methoxyphenyl)quinolin-4-yl)piperidin-4-amine]	< 10 nM
COC(=O)Nc1c(C#N)cccc1-c1ccc2ncc(-c3cc(F)cc(OC)c3)c(N3CCC(N)CC3)c2c1 [2-167, methyl N-{2-[4-(4-aminopiperidin-1-yl)-3-(3-fluoro-5-methoxyphenyl)quinolin-6-yl]-6-cyanophenyl}carbamate]	< 10 nM
Cc1cc(F)cc(-c2cnc3ccc(-c4cncc(F)c4C=NO)cc3c2N2CCC(N)CC2)c1 [2-168, 1-(6-{5-fluoro-4-[(hydroxyimino)methyl]pyridin-3-yl}-3-(3-fluoro-5-methylphenyl)quinolin-4-yl)piperidin-4-amine]	< 10 nM
Cc1cc(F)cc(-c2cnc3ccc(-c4cncc(F)c4N)cc3c2N2CCC(N)CC2)c1 [2-169, 3-[4-(4-aminopiperidin-1-yl)-3-(3-fluoro-5-methylphenyl)quinolin-6-yl]-5-fluoropyridin-4-amine]	< 10 nM
CONC(=O)Nc1c(F)cncc1-c1ccc2ncc(-c3cc(C)cc(F)c3)c(N3CCC(N)CC3)c2c1 [2-172, 1-{3-[4-(4-aminopiperidin-1-yl)-3-(3-fluoro-5-methylphenyl)quinolin-6-yl]-5-fluoropyridin-4-yl}-3-methoxyurea]	< 10 nM
COC(=O)Nc1c(F)cccc1-c1ccc2ncc(-c3cc(F)cc(OC)c3)c(N3CCC(N)CC3)c2c1 [2-173, methyl N-{2-[4-(4-aminopiperidin-1-yl)-3-(3-fluoro-5-methoxyphenyl)quinolin-6-yl]-6-fluorophenyl}carbamate]	< 10 nM
CONC(=O)Nc1c(F)cccc1-c1ccc2ncc(-c3cc(F)cc(OC)c3)c(N3CCC(N)CC3)c2c1 [2-174, 1-{2-[4-(4-aminopiperidin-1-yl)-3-(3-fluoro-5-methoxyphenyl)quinolin-6-yl]-6-fluorophenyl}-3-methoxyurea]	< 10 nM
